Data: patent US5532218A, “3'-aziridino-anthracycline derivatives” (Farmitalia Carlo Erba S.R.L., priority 1993, dated 1996)
≈ marks a conversion by molar mass, not a printed value.

Legend:
[1] = system: P388 murine leukaemia resistant to doxorubicin (P388/DX); assay: antitumor activity on P388/DX leukaemia in vivo; parameters: species or system murine (BD2F1 mice); conditions: for O.D. (Optimal Dose): P388/DX in BD2F1 mice, i.v. one day after tumor transplantation; for O.D. (Optimal Dose) / T/C (median survival time of treated mice/median survival time of controls × 100): in Tween 80 (10%); for T/C (median survival time of treated mice/median survival time of controls × 100): P388/DX 10^5 cell/mouse i.v. in BD2F1 mice, compound i.v. one day after tumor transplantation, at optimal dose; for in vivo activity compared with doxorubicin, in words: P388 murine leukaemia resistant to doxorubicin, BD2F1 mice
From the text: The compounds were suspended in Tween 80 (10%) and injected i.v. one day
after tumor transplantation.
^(2) Median survival time of treated mice/Median survival time of

[2] = system: LoVo/DX (colon adenocarcinoma resistant to doxorubicin); assay: cells; conditions: for resistance index, in words: LoVo/DX vs LoVo; for IC50 (concentration inhibiting 50% colony formation), LoVo/DX / R.I. = Resistance Index = (IC50 LoVo/DX)/(IC50 LoVo): colony assay, 4 h treatment; for cytotoxic activity against LoVo/DX, in words: both cell lines; for R.I. = Resistance Index = (IC50 LoVo/DX)/(IC50 LoVo): ratio LoVo/DX to LoVo
From the text: (§1) The citotoxic activity is reported as IC50, the concentration inhibiting 50% of colony formation, calculated on concentration response curves. Resistance index R.I. is the ratio between the IC50 on resistant cells and the IC50 on sensitive cells.

[3] = system: LoVo (colon adenocarcinoma); assay: cells; conditions: for IC50 (concentration inhibiting 50% colony formation), LoVo: colony assay, 4 h treatment; for cytotoxic activity against LoVo, in words: both cell lines
From the text: as §1

| Molecule | O.D. (Optimal Dose) [1] [mg/kg] | T/C (median survival time of treated mice/median survival time of controls × 100) [1] [%] | in vivo activity compared with doxorubicin, in words [1] | resistance index, in words [2] | IC50 (concentration inhibiting 50% colony formation), LoVo/DX ([2]; LoVo/DX) [µg/mL] | cytotoxic activity against LoVo/DX, in words [2] | R.I. = Resistance Index = (IC50 LoVo/DX)/(IC50 LoVo) [2] | IC50 (concentration inhibiting 50% colony formation), LoVo ([3]; LoVo) [µg/mL] | cytotoxic activity against LoVo, in words [3] | IC50 ([2]; Homo sapiens, LoVo/DX, 4 h, read-out: IC50 (concentration inhibiting 50% colony formation), LoVo/DX) [µg/mL] | IC50 ([3]; Homo sapiens, LoVo, 4 h, read-out: IC50 (concentration inhibiting 50% colony formation), LoVo) [µg/mL] |
| --- | --- | --- | --- | --- | --- | --- | --- | --- | --- | --- | --- |
| COc1cccc2c1C(=O)c1c(O)c3c(c(O)c1C2=O)C[C@@](O)(C(=O)CO)C[C@@H]3O[C@H]1C[C@H](N)[C@H](O)[C@H](C)O1 [doxorubicin, reference compound] | 16.9 | – | – | – | – | – | – | – | – | – | – |
| 3'-deamino-3'-[1-aziridinyl]-4'-O-methansulfonyl doxorubicin [Compound 2c] | 1.8 | 195 | strikingly higher activity than doxorubicin | low resistance index | 0.024 | high activity | 9.2 | 0.0027 | high activity | – | – |
| CC(=O)[C@]1(O)Cc2c(O)c3c(c(O)c2[C@@H](O[C@H]2C[C@H](N4CC4)[C@H](OS(C)(=O)=O)[C@H](C)O2)C1)C(=O)c1ccccc1C3=O [Compound 1b, 4-demethoxy-3'-deamino-3'-[1-aziridinyl]-4'-O-methansulfonyl daunorubicin] | 3.8 | 240 | strikingly higher activity than doxorubicin | low resistance index | – | high activity | 0.9 | – | high activity | 0.026 (≈ 0.0432 µM) | 0.027 (≈ 0.0449 µM) |
| 3'-deamino-3'-[1-aziridinyl]-4'-O-methansulfonyl-14-nicotinate-doxorubicin [Compound 2a] | 2.5 | 200 | strikingly higher activity than doxorubicin | low resistance index | 0.04 | – | 2.9 | 0.014 | – | – | – |
| 3'-deamino-3'-[1-aziridinyl]-4'-O-methansulfonyl daunorubicin [Compound 1a] | 2.2 | 190 | strikingly higher activity than doxorubicin | low resistance index | 0.022 | high activity | 1.7 | 0.013 | high activity | – | – |
